The test system of experiment [1] is RD. Kind of experiment: Cytotoxicity against human RD cells assessed as reduction in cell viability incubated for 72 hrs by MTT assay. The experiment is classed as functional. A general note: Tetrazolium dyes change colour on reduction, which living cells bring about.
For experiment [2], the system named is SW982. Kind of experiment: Cytotoxicity against human SW982 cells assessed as reduction in cell viability incubated for 72 hrs by MTT assay. The experiment is classed as functional.
Experiment [3] concerns the target Histone-lysine N-methyltransferase EZH2 (Homo sapiens, UniProt Q15910). Kind of experiment: Inhibition of human EZH2 using SAM as substrate incubated for 1 hr by microplate luminescence based HMT assay.
Experiment [4] concerns the target T1, Histone-lysine N-methyltransferase EHMT2 (Homo sapiens, UniProt Q96KQ7).
T1 sequence (Q96KQ7 whole entry): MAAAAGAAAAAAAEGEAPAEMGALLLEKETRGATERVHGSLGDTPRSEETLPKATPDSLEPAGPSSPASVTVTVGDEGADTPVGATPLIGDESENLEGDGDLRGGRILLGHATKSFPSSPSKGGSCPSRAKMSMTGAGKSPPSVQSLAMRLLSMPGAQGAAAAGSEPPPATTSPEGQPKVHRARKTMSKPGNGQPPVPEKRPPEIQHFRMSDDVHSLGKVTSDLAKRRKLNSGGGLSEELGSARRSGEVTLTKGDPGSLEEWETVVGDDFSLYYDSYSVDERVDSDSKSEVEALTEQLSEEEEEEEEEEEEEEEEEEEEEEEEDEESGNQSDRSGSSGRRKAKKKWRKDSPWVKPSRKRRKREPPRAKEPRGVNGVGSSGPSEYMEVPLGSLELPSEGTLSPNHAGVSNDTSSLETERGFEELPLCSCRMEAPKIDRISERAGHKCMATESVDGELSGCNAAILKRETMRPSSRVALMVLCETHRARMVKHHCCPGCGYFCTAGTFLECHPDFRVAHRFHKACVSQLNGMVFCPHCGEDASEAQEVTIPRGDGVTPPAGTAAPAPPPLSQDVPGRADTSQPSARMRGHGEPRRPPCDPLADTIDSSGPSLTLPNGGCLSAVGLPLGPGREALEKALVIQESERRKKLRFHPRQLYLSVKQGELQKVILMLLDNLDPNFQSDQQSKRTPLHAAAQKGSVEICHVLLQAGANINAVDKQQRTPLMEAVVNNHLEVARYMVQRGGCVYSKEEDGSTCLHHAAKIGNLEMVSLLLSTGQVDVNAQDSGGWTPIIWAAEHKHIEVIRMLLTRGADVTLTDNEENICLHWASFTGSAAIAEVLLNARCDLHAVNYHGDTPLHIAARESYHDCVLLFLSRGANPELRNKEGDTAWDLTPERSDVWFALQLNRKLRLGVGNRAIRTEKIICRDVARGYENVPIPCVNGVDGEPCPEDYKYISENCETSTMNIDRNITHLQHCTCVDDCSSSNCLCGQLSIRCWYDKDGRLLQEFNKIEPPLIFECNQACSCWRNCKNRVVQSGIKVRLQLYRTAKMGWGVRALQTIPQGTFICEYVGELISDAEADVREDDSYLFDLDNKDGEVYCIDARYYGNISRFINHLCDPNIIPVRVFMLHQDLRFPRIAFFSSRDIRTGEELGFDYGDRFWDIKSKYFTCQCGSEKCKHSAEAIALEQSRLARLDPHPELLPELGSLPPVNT
Kind of experiment: Inhibition of human recombinant EHMT2 G9a using SAM as substrate incubated for 1 hr by microplate luminescence based HMT assay.

Experiment [5] deals with SW982. Kind of experiment: Antiproliferative activity against human SW982 cells assessed as reduction in clone formation rate at 5 uM for 1 to 2 weeks with fresh medium replacement for every 2 to 3 days by crystal violet staining based microscopic analysis. As to conditions: time 1-2 weeks. It counts as functional, cell-based.
Experiment [6] concerns RD. Kind of experiment: Antiproliferative activity against human RD cells assessed as reduction in clone formation rate at 5 uM for 1 to 2 weeks with fresh medium replacement for every 2 to 3 days by crystal violet staining based microscopic analysis. The experiment is classed as functional, cell-based. To be noted: time 1-2 weeks.
Experiment [7] deals with SW982. Kind of experiment: Antiproliferative activity against human SW982 cells assessed as reduction in clone formation rate at 5 uM for 1 to 2 weeks with fresh medium replacement for every 2 to 3 days in presence of tazemetostat by crystal violet staining based microscopic analysis. It counts as functional, cell-based. To be noted: time 1-2 weeks.
In experiment [8] the test system is RD. Kind of experiment: Antiproliferative activity against human RD cells assessed as reduction in clone formation rate at 5 uM for 1 to 2 weeks with fresh medium replacement for every 2 to 3 days in presence of tazemetostat by crystal violet staining based microscopic analysis. As to conditions: time 1-2 weeks. The experiment is classed as functional, cell-based.

Experiment [9] deals with Mus musculus. Kind of experiment: Downregulation of H3K27me3 expression in tumor tissue of BALB/c nude mouse xenografted with human RD cells at 20 mg/kg, ip administered for 5 consecutive days followed by 2 rest days for 3 weeks by Western blotting analysis. The experiment is classed as functional, organism-based. Background: In xenograft studies the graft and the host belong to different species.

The subject of experiment [10] is Mus musculus. Kind of experiment: Downregulation of H3K9me2 expression in tumor tissue of BALB/c nude mouse xenografted with human RD cells at 20 mg/kg, ip administered for 5 consecutive days followed by 2 rest days for 3 weeks by Western blotting analysis. The experiment is classed as functional, organism-based.
The subject of experiment [11] is RD. Kind of experiment: Antitumor activity against human RD cells xenografted in BALB/c nude mouse assessed as tumor growth inhibition at 20 mg/kg, ip administered for 5 consecutive days followed by 2 rest days for 3 weeks. To be noted: 504 h, read-out: TGI.

The structures appear in SMILES notation. Activity calls are given as the source filed them. The rule behind the calls is not given here.

One may read the CC50 as the concentration that lowers cell viability or growth by half. One may read the IC50 as the concentration at which inhibition is half-maximal.

Histone-lysine N-methyltransferase EZH2, sequence (Q15910 whole entry): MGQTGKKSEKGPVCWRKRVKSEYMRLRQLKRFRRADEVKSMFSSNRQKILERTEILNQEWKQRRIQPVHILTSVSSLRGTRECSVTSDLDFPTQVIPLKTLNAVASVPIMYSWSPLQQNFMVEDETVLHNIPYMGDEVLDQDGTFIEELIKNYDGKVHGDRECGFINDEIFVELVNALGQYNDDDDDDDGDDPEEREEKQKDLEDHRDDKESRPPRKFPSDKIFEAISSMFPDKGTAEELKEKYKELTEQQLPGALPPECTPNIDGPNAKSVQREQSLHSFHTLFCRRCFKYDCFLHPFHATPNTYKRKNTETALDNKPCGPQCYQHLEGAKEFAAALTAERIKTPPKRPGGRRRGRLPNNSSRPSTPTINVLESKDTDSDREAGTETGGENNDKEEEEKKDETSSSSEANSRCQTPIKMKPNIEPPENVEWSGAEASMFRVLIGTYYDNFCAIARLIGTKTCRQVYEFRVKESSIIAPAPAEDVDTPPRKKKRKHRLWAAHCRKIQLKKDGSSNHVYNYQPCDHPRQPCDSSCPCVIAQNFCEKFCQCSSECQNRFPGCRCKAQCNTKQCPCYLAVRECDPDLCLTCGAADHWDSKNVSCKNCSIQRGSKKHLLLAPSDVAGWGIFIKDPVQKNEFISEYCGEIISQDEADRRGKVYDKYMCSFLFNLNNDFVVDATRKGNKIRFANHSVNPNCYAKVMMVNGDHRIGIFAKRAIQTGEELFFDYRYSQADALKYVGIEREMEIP

Regarding `COc1cc2c(NCc3c(C)cc(C)[nH]c3=O)nc(N3CCC(OC)CC3)nc2cc1OCCCN1CCCC1`, the results for the CC50 in experiment [1] and in experiment [2] were 40.1 µM and 61.6 µM, respectively.

For `COc1cc2nc(N3CCCN(C)CC3)nc(NCc3c(C)cc(C)[nH]c3=O)c2cc1OC`, the half-inhibitory concentration (IC50) in experiment [3] worked out at 0.0533 µM; in experiment [4], 0.015 µM. For the same molecule, the CC50 is 68.5 µM in experiment [1] and 99.8 µM in [2].

With `COc1cc2c(NCc3c(C)cc(C)[nH]c3=O)nc(N3CCCCCC3)nc2cc1OCCCN1CCCC1`, the CC50 came to 23.5 µM in [1] and 35.7 µM in [2].

`COc1cc2c(NC3CCN(C(C)C)CC3)nc(C3CCCCC3)nc2cc1OCCCN1CCCC1`: the result in [5], in experiment [6], in [7] and in experiment [8] was Active. Further, the figures for the CC50 in experiment [1] and in [2] were 34.2 µM and 29.5 µM, respectively.

For the molecule `COc1cc2c(NCc3c(C)cc(C)[nH]c3=O)nc(N3CCCC3)nc2cc1OCCCN1CCCC1`, the figures for the 50% cytotoxic concentration (CC50) in experiment [1] and in experiment [2] were 75.7 µM and 90.2 µM, respectively.

As for `CCN1CCN(c2nc(NCc3c(C)cc(C)[nH]c3=O)c3cc(OC)c(OCCCN4CCCC4)cc3n2)CC1`, the figures for the cytotoxic concentration (CC50) in experiment [1] and in experiment [2] were 22.7 µM and 53.6 µM, respectively.

On to `CCN(c1cc(-c2ccc(CN3CCOCC3)cc2)cc(C(=O)NCc2c(C)cc(C)[nH]c2=O)c1C)C1CCOCC1` [TAZEMETOSTAT], for which the outcome in experiment [9] and in [10] was Active. Further, the cytotoxic concentration (CC50) in experiment [1] turned out to be 245 µM; in experiment [2], 116 µM. Further, in [11], the inhibition in vivo at 20 mg/kg was 69.2%.

Consider `COc1cc2c(NCc3c(C)cc(C)[nH]c3=O)nc(N3CCOCC3)nc2cc1OCCCN1CCCC1`, for which the 50% cytotoxic concentration (CC50) in [1] is 73.8 µM; in experiment [2], 99.8 µM.

For `COc1cc2nc(N(C)CCCN(C)C)nc(NCc3c(C)cc(C)[nH]c3=O)c2cc1OC`, the 50% cytotoxic concentration (CC50) in experiment [1] turned out to be 76 µM; in [2], 101 µM.

In the case of `COc1cc2nc(N(C)CCN(C)C)nc(NCc3c(C)cc(C)[nH]c3=O)c2cc1OC`, the CC50 in experiment [1] is 84.9 µM; in experiment [2], 85.7 µM.

Turning to `COc1cc2c(NCc3c(C)cc(C)[nH]c3=O)nc(N3CCN(C)CC3)nc2cc1OCCCN1CCCC1`, the 50% cytotoxic concentration (CC50) came out at 60.1 µM in experiment [1] and 67.2 µM in experiment [2].

Take `COc1cc2nc(N3CCN(C)CC3)nc(NCc3c(C)cc(C)[nH]c3=O)c2cc1OC`: the half-maximal cytotoxic concentration (CC50) turned out to be 79.9 µM in experiment [1] and 106 µM in experiment [2].

Consider `COc1cc2c(NCc3c(C)cc(C)[nH]c3=O)nc(N3CCCCC3)nc2cc1OCCCN1CCCC1`, for which the CC50 in [1] came out at 41.3 µM; in [2], 27 µM.

`COc1cc2c(NCc3c(C)cc(C)[nH]c3=O)nc(N(C)CCN(C)C)nc2cc1OCCCN1CCCC1`: the cytotoxic concentration (CC50) in [1] was determined as 74.3 µM; in experiment [2], 78.3 µM.

In the case of `COc1cc2c(NCc3c(C)cc(C)[nH]c3=O)nc(N(C)C)nc2cc1OCCCN1CCCC1`, the 50% cytotoxic concentration (CC50) was determined as 74.4 µM in [1] and 85 µM in experiment [2].

On to `COc1cc2c(NCc3c(C)cc(C)[nH]c3=O)nc(N3CCCN(C)CC3)nc2cc1OCCCN1CCCC1`, for which the figures for the CC50 in experiment [1] and in [2] were 56.5 µM and 48.9 µM, respectively.

For `CCN(CC)c1nc(NCc2c(C)cc(C)[nH]c2=O)c2cc(OC)c(OCCCN3CCCC3)cc2n1`, the 50% cytotoxic concentration (CC50) came to 82.5 µM in [1] and 87.7 µM in [2].

Turning to `COc1cc2nc(N3CCOCC3)nc(NCc3c(C)cc(C)[nH]c3=O)c2cc1OC`, the values for the CC50 in experiment [1] and in experiment [2] were 77.2 µM and 89.2 µM, respectively.

The values above are taken from ChEMBL document CHEMBL5338739, “Discovery of Dual Lysine Methyltransferase G9a and EZH2 Inhibitors with In Vivo Efficacy against Malignant Rhabdoid Tumor” (J Med Chem, 2023).
